For assay [1], the target named is 6×HIS-tankyrase1 (1091-1325) (Homo sapiens (Human), UniProt O95271). Kind of assay: Tankyrase 1 biochemical assay (AlphaLisa, PARsylation). Particulars: 400 nM NAD, 60 minutes at RT; read-out: TNKS1 IC50.
The target of assay [2] is 6×HIS-tankyrase 2 (946-1162) (Homo sapiens (Human), UniProt Q9H2K2). Kind of assay: Tankyrase 2 biochemical assay (AlphaLisa, PARsylation). As to conditions: 250 nM NAD; read-out: TNKS2 IC50. For orientation: Alpha assays give light when donor and acceptor beads are brought close together.
Chain of 6×HIS-tankyrase 2 (946-1162) (Q9H2K2 946-1162): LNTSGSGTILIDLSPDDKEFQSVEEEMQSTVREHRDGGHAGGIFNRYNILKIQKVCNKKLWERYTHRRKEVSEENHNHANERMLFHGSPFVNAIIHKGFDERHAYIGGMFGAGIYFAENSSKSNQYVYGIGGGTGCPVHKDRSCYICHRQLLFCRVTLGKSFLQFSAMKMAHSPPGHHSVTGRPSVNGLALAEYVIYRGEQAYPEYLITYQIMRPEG
For assay [3], the system named is Axin2 accumulation in SW480 cells. Kind of assay: Axin2 384 immunofluorescence assay. Particulars: Homo sapiens; SW480 cells, 24 hours; read-out: Axin2 384 IF EC50. Format: cell-based.
Another assay deals with PARP1 (Homo sapiens (Human), UniProt P09874). Kind of assay: PARP1 biochemical assay (Trevigen kit). The source says: PARP1 biochemical assay was purchased as a kit from Trevigen (cat.#4676-096-K) and used per manufacturers recommendations.
Chain of PARP1 (P09874 whole entry): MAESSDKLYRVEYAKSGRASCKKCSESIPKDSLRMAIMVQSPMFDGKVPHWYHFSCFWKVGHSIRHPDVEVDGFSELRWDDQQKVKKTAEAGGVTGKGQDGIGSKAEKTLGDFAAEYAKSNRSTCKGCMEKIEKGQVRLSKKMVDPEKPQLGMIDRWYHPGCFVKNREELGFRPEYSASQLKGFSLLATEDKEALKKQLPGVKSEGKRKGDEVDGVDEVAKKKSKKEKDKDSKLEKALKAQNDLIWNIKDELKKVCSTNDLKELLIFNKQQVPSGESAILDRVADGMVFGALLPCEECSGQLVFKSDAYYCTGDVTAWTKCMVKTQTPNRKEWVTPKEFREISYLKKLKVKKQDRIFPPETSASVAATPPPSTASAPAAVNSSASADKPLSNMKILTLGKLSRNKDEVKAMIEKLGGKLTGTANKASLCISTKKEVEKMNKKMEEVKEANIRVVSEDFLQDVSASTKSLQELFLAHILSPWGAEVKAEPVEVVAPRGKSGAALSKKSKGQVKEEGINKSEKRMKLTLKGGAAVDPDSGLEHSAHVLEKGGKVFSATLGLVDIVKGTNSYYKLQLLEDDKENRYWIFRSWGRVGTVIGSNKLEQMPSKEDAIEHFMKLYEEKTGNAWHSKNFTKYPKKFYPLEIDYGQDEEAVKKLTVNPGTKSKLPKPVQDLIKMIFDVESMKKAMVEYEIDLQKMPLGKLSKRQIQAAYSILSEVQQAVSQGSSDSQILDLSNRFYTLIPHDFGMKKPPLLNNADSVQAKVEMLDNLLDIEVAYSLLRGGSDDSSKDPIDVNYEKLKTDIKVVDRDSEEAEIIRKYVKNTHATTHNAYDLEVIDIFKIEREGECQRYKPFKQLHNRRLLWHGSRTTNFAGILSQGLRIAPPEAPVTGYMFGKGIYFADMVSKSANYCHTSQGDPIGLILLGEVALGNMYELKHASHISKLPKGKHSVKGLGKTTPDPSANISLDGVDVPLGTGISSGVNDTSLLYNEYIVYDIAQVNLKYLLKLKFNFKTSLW
Another assay deals with PARP2 (Homo sapiens (Human), UniProt Q9UGN5). Kind of assay: PARP2 biochemical assay (BPS kit).
Chain of PARP2 (Q9UGN5 whole entry): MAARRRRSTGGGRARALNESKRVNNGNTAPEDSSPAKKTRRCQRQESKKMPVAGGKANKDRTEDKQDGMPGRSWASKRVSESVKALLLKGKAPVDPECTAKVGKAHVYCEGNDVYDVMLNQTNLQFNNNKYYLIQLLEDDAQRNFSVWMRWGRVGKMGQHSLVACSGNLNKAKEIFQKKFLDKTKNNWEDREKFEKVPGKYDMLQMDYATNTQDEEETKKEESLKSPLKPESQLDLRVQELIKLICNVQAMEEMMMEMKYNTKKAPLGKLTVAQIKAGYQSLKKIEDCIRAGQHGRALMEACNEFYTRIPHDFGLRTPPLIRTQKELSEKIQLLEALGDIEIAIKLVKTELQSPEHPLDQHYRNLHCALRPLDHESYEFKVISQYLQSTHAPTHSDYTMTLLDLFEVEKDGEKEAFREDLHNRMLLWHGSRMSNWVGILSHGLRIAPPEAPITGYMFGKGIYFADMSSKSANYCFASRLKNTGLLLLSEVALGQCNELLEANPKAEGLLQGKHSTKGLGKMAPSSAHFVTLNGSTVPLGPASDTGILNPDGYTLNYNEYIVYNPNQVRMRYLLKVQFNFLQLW
Assay [4] deals with total β-catenin in SW480 colorectal cells. Kind of assay: Total β-catenin MSD 96-well plate assay for SW480 cells. Particulars: Homo sapiens, SW480, read-out: SW480-Total beta-catenin (TBC) IC50 IP.

Chain of 6×HIS-tankyrase1 (1091-1325) (O95271 1091-1325): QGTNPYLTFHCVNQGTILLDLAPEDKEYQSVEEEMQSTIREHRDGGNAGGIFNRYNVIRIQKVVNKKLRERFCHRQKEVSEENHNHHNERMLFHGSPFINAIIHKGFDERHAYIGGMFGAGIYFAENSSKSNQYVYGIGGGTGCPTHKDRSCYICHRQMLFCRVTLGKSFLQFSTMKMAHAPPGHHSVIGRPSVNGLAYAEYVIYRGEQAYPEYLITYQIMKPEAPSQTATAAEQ

One may read the IC50 as the concentration that inhibits the measured activity by half. Usually EC50 stands for the concentration at which the effect is half-maximal. Take `O=C(CCc1nc2ccccc2c(=O)[nH]1)N1CCC(c2nnc(-c3ccccc3)o2)CC1` [Example 98, 2-(3-oxo-3-(4-(5-phenyl-1,3,4-oxadiazol-2-yl)piperidin-1-yl)propyl)quinazolin-4(3H)-one]: the IC50 in assay [1] is 161 nM; in assay [2], 199 nM; against PARP1, 3460 nM; at PARP2 it was 806 nM; in assay [4], 2730 nM. Further, the EC50 in assay [3] was determined as 3990 nM.

Regarding `COc1cccc(-c2nnc([C@H]3CC[C@H](NC(=O)CCCc4nc5ccccc5c(=O)[nH]4)CC3)o2)c1` [Example 32, N-(trans-4-(5-(3-methoxyphenyl)-1,3,4-oxadiazol-2-yl)cyclohexyl)-4-(4-oxo-3,4-dihydro-2-quinazolinyl)butanamide], the IC50 in assay [1] was found to be 0.495 nM; in assay [2], 0.301 nM; against PARP1 it was 801 nM; against PARP2, 828 nM; in assay [4], 15.7 nM. For the same compound, the EC50 in assay [3] was 32.5 nM.

`N#Cc1ccc(O[C@H]2CC[C@H](NC(=O)CCCc3nc4ccccc4c(=O)[nH]3)CC2)cc1` [Example 78, N-(trans-4-(4-cyanophenoxy)cyclohexyl)-4-(4-oxo-3,4-dihydro-2-quinazolinyl)butanamide]: the IC50 worked out at 2.23 nM in assay [1]; 0.434 nM in assay [2]; 558 nM against PARP1; 246 nM at PARP2; 7.14 nM in assay [4]. Besides, the EC50 in assay [3] came to 49.2 nM.

On to `O=C(CCCc1nc2ccccc2c(=O)[nH]1)N1CCC(c2nnc(-c3ccccc3F)o2)CC1` [Example 18, 2-(4-(4-(5-(2-fluorophenyl)-1,3,4-oxadiazol-2-yl)-1-piperidinyl)-4-oxobutyl)-4(3H)-quinazolinone], for which the IC50 amounted to 54.4 nM in assay [1]; 20.9 nM in assay [2]; 4470 nM on PARP1; 1120 nM at PARP2; 760 nM in assay [4]. Further, the concentration giving a half-maximal response (EC50) in assay [3] came to 732 nM.

Consider `O=C(CCCc1nc2ccccc2c(=O)[nH]1)N1CCC(n2c(=O)[nH]c3c(F)cccc32)CC1` [Example 67, 2-(4-(4-(4-fluoro-2-oxo-2,3-dihydro-1H-benzimidazol-1-yl)-1-piperidinyl)-4-oxobutyl)-4(3H)-quinazolinone], for which the IC50 worked out at 3.93 nM in assay [1]; 1.68 nM in assay [2]; 1280 nM against PARP1; 681 nM at PARP2; 980 nM in assay [4]. For the same compound, in assay [3], the EC50 amounted to 552 nM.

As to `O=C(CCCc1nc2ccccc2c(=O)[nH]1)N1CCN(c2nsc3ccccc23)CC1` [Example 69, 2-(4-(4-(1,2-benzisothiazol-3-yl)-1-piperazinyl)-4-oxobutyl)-4(3H)-quinazolinone], the IC50 in assay [1] was 407 nM; in assay [2] it was 451 nM; on PARP1 it was 1760 nM; against PARP2, 317 nM; in assay [4] it was 2560 nM. In assay [3], the EC50 worked out at 686 nM.

Take `O=C(CCSc1nc2ccccc2c(=O)[nH]1)N1CCC(c2nnc(-c3ccccc3)o2)CC1` [Example 83, 2-((3-oxo-3-(4-(5-phenyl-1,3,4-oxadiazol-2-yl)piperidin-1-yl)propyl)thio)quinazolin-4(3H)-one]: the IC50 in assay [1] was 31.4 nM; in assay [2], 12.5 nM; against PARP1, 1510 nM; against PARP2 it was 345 nM; in assay [4], 726 nM. The EC50 in assay [3] is 2680 nM.

In the case of `O=C(CCCc1nc2ccccc2c(=O)[nH]1)N1CCC(n2c(=O)[nH]c3cc(F)ccc32)CC1` [Example 51, 2-(4-(4-(5-fluoro-2-oxo-2,3-dihydro-1H-benzimidazol-1-yl)-1-piperidinyl)-4-oxobutyl)-4(3H)-quinazolinone trifluoroacetic acid], the IC50 in assay [1] stood at 4.09 nM; in assay [2] it was 0.517 nM; against PARP1, 894 nM; at PARP2, 553 nM; in assay [4] it was 348 nM. In addition, in assay [3], the EC50 amounted to 661 nM.

For the compound `O=C(CCCc1nc2ccccc2c(=O)[nH]1)N1CCC(n2c(=O)[nH]c3cc(C(F)(F)F)ccc32)CC1` [Example 52, 2-(4-oxo-4-(4-(2-oxo-5-(trifluoromethyl)-2,3-dihydro-1H-benzimidazol-1-yl)-1-piperidinyl)butyl)-4(3H)-quinazolinone trifluoroacetic acid], the IC50 stood at 1.3 nM in assay [1]; 0.193 nM in assay [2]; 3830 nM on PARP1; 1020 nM against PARP2; 25.2 nM in assay [4]. For the same compound, in assay [3], the 50% effective concentration (EC50) came to 94.7 nM.

For the compound `N#Cc1ccc2c(c1)[nH]c(=O)n2[C@H]1CC[C@H](NC(=O)CCSc2nc3ccccc3c(=O)[nH]2)CC1` [Example 104, N-((1r,4r)-4-(5-cyano-2-oxo-2,3-dihydro-1H-benzo[d]imidazol-1-yl)cyclohexyl)-3-((4-oxo-3,4-dihydroquinazolin-2-yl)thio)propanamide], the IC50 in assay [1] came to 0.045 nM; in assay [2] it was 1.31 nM; on PARP1, 1350 nM; at PARP2, 1180 nM; in assay [4] it was 8.42 nM. The 50% effective concentration (EC50) in assay [3] is 9.45 nM.

As to `O=C(CCCc1nc2ccccc2c(=O)[nH]1)N[C@H]1CC[C@H](c2nnc(-c3cccc(Cl)c3)o2)CC1` [Example 36, N-(trans-4-(5-(3-chlorophenyl)-1,3,4-oxadiazol-2-yl)cyclohexyl)-4-(4-oxo-3,4-dihydro-2-quinazolinyl)butanamide 2,2,2-trifluoroacetate], the IC50 in assay [1] was 0.367 nM; in assay [2], 0.27 nM; against PARP1, 1140 nM; on PARP2, 701 nM; in assay [4], 29.9 nM. Also, the EC50 in assay [3] was 22 nM.

`O=C(CCCc1nc2ccccc2c(=O)[nH]1)N1CCC(n2c(=O)[nH]c3cccnc32)CC1` [Example 26, 2-(4-oxo-4-(4-(2-oxo-1,2-dihydro-3H-imidazo[4,5-b]pyridin-3-yl)-1-piperidinyl)butyl)-4(3H)-quinazolinone]: the IC50 was 5.07 nM in assay [1]; 1.51 nM in assay [2]; 4930 nM at PARP1; 397 nM on PARP2; 361 nM in assay [4]. The EC50 in assay [3] stood at 1410 nM.

Regarding `COc1ccc(-c2nnc([C@H]3CC[C@H](NC(=O)CCCc4nc5ccccc5c(=O)[nH]4)CC3)o2)cc1` [Example 30, N-(trans-4-(5-(4-methoxyphenyl)-1,3,4-oxadiazol-2-yl)cyclohexyl)-4-(4-oxo-3,4-dihydro-2-quinazolinyl)butanamide], the IC50 came out at 0.567 nM in assay [1]; 0.191 nM in assay [2]; 1060 nM on PARP1; 1270 nM against PARP2; 10.6 nM in assay [4]. In addition, the EC50 in assay [3] is 13.9 nM.

Consider `COc1ccc(-c2nnc(C3CCN(C(=O)CCCc4nc5ccccc5c(=O)[nH]4)CC3)o2)cc1` [Example 15, 2-(4-(4-(5-(4-methoxyphenyl)-1,3,4-oxadiazol-2-yl)-1-piperidinyl)-4-oxobutyl)-4(3H)-quinazolinone], for which the IC50 was 15 nM in assay [1]; 3.35 nM in assay [2]; 3170 nM at PARP1; 1200 nM on PARP2; 86.9 nM in assay [4]. Further, the EC50 in assay [3] turned out to be 126 nM.

Turning to `O=C(CCCc1nc2ccccc2c(=O)[nH]1)N1CCC(c2nnc(-c3ccc(Cl)cc3)o2)CC1` [Example 4, 2-(4-(4-(5-(4-chlorophenyl)-1,3,4-oxadiazol-2-yl)piperidin-1-yl)-4-oxobutyl)quinazolin-4(3H)-one], the IC50 in assay [1] is 11 nM; in assay [2] it was 2.06 nM; against PARP1, 2410 nM; against PARP2 it was 961 nM; in assay [4], 36.4 nM. Further, the EC50 in assay [3] worked out at 210 nM.

Consider `N#Cc1ccc(O[C@H]2CC[C@H](NC(=O)CCSc3nc4c(c(=O)[nH]3)CCCC4)CC2)cc1` [Example 116, N-(trans-4-(4-cyanophenoxy)cyclohexyl)-3-((4-oxo-3,4,5,6,7,8-hexahydroquinazolin-2-yl)thio)propanamide], for which the IC50 in assay [1] came out at 0.167 nM; in assay [2], 3.13 nM; against PARP1, 2500 nM; against PARP2, 319 nM; in assay [4], 3.79 nM. In addition, in assay [3], the EC50 worked out at 10.7 nM.

For the compound `O=C(CCCc1nc2ccccc2c(=O)[nH]1)N[C@H]1CC[C@H](Oc2ccc(F)cc2)CC1` [Example 77, N-(trans-4-(4-fluorophenoxy)cyclohexyl)-4-(4-oxo-3,4-dihydro-2-quinazolinyl)butanamide], the IC50 in assay [1] worked out at 4.37 nM; in assay [2] it was 0.601 nM; against PARP1 it was 1710 nM; at PARP2 it was 1820 nM; in assay [4], 119 nM. The EC50 in assay [3] worked out at 601 nM.

As for `O=C(CCCc1nc2ccccc2c(=O)[nH]1)N1CCC(c2nnc(-c3ccccn3)o2)CC1` [Example 12, 2-(4-oxo-4-(4-(5-(2-pyridinyl)-1,3,4-oxadiazol-2-yl)-1-piperidinyl)butyl)-4(3H)-quinazolinone], the IC50 worked out at 89.7 nM in assay [1]; 15.9 nM in assay [2]; 6290 nM against PARP1; 1920 nM at PARP2; 1840 nM in assay [4]. Also, the EC50 in assay [3] was 1220 nM.

With `N#Cc1ccc2c(c1)[nH]c(=O)n2C1CCN(C(=O)CCCc2nc3ccccc3c(=O)[nH]2)CC1` [Example 68, 2-oxo-1-(1-(4-(4-oxo-3,4-dihydro-2-quinazolinyl)butanoyl)-4-piperidinyl)-2,3-dihydro-1H-benzimidazole-5-carbonitrile], the half-maximal inhibitory concentration (IC50) is 0.783 nM in assay [1]; 0.292 nM in assay [2]; 636 nM on PARP1; 227 nM at PARP2; 161 nM in assay [4]. Moreover, in assay [3], the EC50 is 239 nM.

(Values after US9505749B2, “Quinazolinone compounds and derivatives thereof” (AMGEN INC., priority 2012, dated 2016).)
